pEC50: −log10 of the molar value.

Among the data in ChEMBL document CHEMBL1141965, “Preparation of human Melanocortin-4 receptor agonist libraries: linear peptides X-Y-DPhe7-Arg8-Trp(or 2-Nal)9-Z-NH2” (Bioorg Med Chem Lett, 2005) are EC50 values, retold here.

In experiment [1] the target is Melanocortin receptor 4 (Homo sapiens, UniProt P32245). Kind of experiment: Agonist activity in HEK293 cells transfected with human MC4R by cAMP accumulation. Type of experiment: functional, cell-based. For orientation: Cyclic AMP is a second messenger, typically raised through Gs and lowered through Gi signalling.
Sequence of Melanocortin receptor 4 (P32245 whole entry): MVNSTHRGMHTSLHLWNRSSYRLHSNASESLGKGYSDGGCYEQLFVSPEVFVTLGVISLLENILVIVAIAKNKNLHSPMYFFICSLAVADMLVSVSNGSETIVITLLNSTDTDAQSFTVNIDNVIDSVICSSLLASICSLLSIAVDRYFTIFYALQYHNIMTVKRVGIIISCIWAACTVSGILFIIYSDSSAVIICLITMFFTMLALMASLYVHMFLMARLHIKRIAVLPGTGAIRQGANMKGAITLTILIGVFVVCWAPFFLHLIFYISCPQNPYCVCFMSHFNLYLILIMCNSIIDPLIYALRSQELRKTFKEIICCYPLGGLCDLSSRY
Experiment [2] deals with Melanocyte-stimulating hormone receptor (Homo sapiens, UniProt Q01726). Kind of experiment: Agonist activity in HEK293 cells transfected with human MC1R by cAMP accumulation. Type of experiment: functional, cell-based.
Sequence of Melanocyte-stimulating hormone receptor (Q01726 whole entry): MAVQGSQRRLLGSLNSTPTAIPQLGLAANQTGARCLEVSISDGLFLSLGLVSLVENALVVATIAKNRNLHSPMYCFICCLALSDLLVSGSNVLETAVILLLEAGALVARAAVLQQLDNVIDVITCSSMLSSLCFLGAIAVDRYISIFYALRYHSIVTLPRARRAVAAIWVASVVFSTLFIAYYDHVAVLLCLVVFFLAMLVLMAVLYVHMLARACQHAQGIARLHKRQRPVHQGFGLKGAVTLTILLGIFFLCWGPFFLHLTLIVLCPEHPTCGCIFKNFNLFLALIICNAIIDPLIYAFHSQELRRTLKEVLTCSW

The term pEC50 denotes −log10 of the EC50, conventionally taken in molar units. A low value points to a large EC50. With `CCCCC(=O)NC1(C(=O)N[C@H](Cc2ccccc2)C(=O)N[C@@H](CCCN=C(N)N)C(=O)N[C@@H](Cc2ccc3ccccc3c2)C(=O)NCC(N)=O)CCc2c(Br)cccc2C1` (some centres not stated), the pEC50 is 6.70 in experiment [1] and 5.54 in experiment [2].
